Structures can show the parent of a compound that is named as a salt.
Species on record: Rattus norvegicus
Assay: Open TG-GATES - Regimen: Single
Format: toxicity, organism-based, Sprague-Dawley
Set-up: regimen Single, gender Male, age 6 weeks
Details: in vivo, ip, 0 mg/kg, route intraperitoneal injection, dose level Control; for APTT / Bas / Eos / Fbg / Hb / Ht / Lym / MCH / MCHC / MCV / Mono / Neu / PT / Plat / RBC / Ret / WBC: tissue Blood; for KIDNEY_L / KIDNEY_R / KIDNEY_TOTAL: tissue Kidney; for LIVER: tissue Liver; for A/G / ALP / ALT / AST / BUN / CRE / Ca / Cl / DBIL / GLC / IP / K / LDH / Na / PL / RALB / TBIL / TC / TG / TP / gamma-GTP: tissue Plasma

SMILES: CCOC(=O)/C=C\C(=O)OCC [DIETHYL MALEATE]
- TERMINAL_BW (3 h): 198.9 g
- APTT (3 h): 16.4 s
- Bas (3 h): 0%
- Eos (3 h): 0.6%
- Fbg (3 h): 209.8 mg/dL
- Hb (3 h): 13 g/dL
- Ht (3 h): 39.1%
- Lym (3 h): 69.8%
- MCH (3 h): 21.2 pg
- MCHC (3 h): 33.4%
- MCV (3 h): 63.6 fL
- Mono (3 h): 7%
- Neu (3 h): 22.8%
- PT (3 h): 12.3 s
- Plat (3 h): 114.7 x10_4/uL
- RBC (3 h): 615.6 x10_4/ul
- Ret (3 h): 10.1%
- WBC (3 h): 113.4 x10_2/uL
- KIDNEY_L (3 h): 0.9 g
- KIDNEY_R (3 h): 0.9 g
- KIDNEY_TOTAL (3 h): 1.8 g
- LIVER (3 h): 9.2 g
- A/G (3 h): 2
- ALP (3 h): 732.6 IU/L
- ALT (3 h): 39.8 IU/L
- AST (3 h): 78.2 IU/L
- BUN (3 h): 14.6 mg/dL
- CRE (3 h): 0.5 mg/dL
- Ca (3 h): 11.2 mg/dL
- Cl (3 h): 106 meq/L
- DBIL (3 h): 0.028 mg/dL
- GLC (3 h): 187 mg/dL
- IP (3 h): 10.1 mg/dL
- K (3 h): 5.2 meq/L
- LDH (3 h): 80.6 IU/L
- Na (3 h): 140.4 meq/L
- PL (3 h): 137.4 mg/dL
- RALB (3 h): 3.6 g/dL
- TBIL (3 h): 0.3 mg/dL
- TC (3 h): 79.6 mg/dL
- TG (3 h): 38 mg/dL
- TP (3 h): 5.4 g/dL
- gamma-GTP (3 h): 1 IU/L
- TERMINAL_BW (6 h): 197.4 g
- APTT (6 h): 16.4 s
- Bas (6 h): 0%
- Eos (6 h): 1%
- Fbg (6 h): 219.8 mg/dL
- Hb (6 h): 13.4 g/dL
- Ht (6 h): 40.3%
- Lym (6 h): 67%
- MCH (6 h): 21.6 pg
- MCHC (6 h): 33.3%
- MCV (6 h): 64.8 fL
- Mono (6 h): 7.4%
- Neu (6 h): 24.6%
- PT (6 h): 12 s
- Plat (6 h): 118.6 x10_4/uL
- RBC (6 h): 621.6 x10_4/ul
- Ret (6 h): 8.9%
- WBC (6 h): 102 x10_2/uL
- KIDNEY_L (6 h): 0.8 g
- KIDNEY_R (6 h): 0.9 g
- KIDNEY_TOTAL (6 h): 1.7 g
- LIVER (6 h): 8.3 g
- A/G (6 h): 1.8
- ALP (6 h): 838.6 IU/L
- ALT (6 h): 35.2 IU/L
- AST (6 h): 67 IU/L
- BUN (6 h): 14 mg/dL
- CRE (6 h): 0.4 mg/dL
- Ca (6 h): 10.6 mg/dL
- Cl (6 h): 106.6 meq/L
- DBIL (6 h): 0.018 mg/dL
- GLC (6 h): 191 mg/dL
- IP (6 h): 10.4 mg/dL
- K (6 h): 5.2 meq/L
- LDH (6 h): 70.4 IU/L
- Na (6 h): 139.8 meq/L
- PL (6 h): 142.6 mg/dL
- RALB (6 h): 3.4 g/dL
- TBIL (6 h): 0.4 mg/dL
- TC (6 h): 84.2 mg/dL
- TG (6 h): 51.2 mg/dL
- TP (6 h): 5.3 g/dL
- gamma-GTP (6 h): 1.6 IU/L
- TERMINAL_BW (9 h): 194.7 g
- APTT (9 h): 16.6 s
- Bas (9 h): 0%
- Eos (9 h): 0.6%
- Fbg (9 h): 228.4 mg/dL
- Hb (9 h): 12.7 g/dL
- Ht (9 h): 38%
- Lym (9 h): 73.8%
- MCH (9 h): 21.7 pg
- MCHC (9 h): 33.3%
- MCV (9 h): 65 fL
- Mono (9 h): 3%
- Neu (9 h): 22.6%
- PT (9 h): 11.9 s
- Plat (9 h): 117 x10_4/uL
- RBC (9 h): 585.2 x10_4/ul
- Ret (9 h): 9.9%
- WBC (9 h): 101.3 x10_2/uL
- KIDNEY_L (9 h): 0.9 g
- KIDNEY_R (9 h): 0.9 g
- KIDNEY_TOTAL (9 h): 1.8 g
- LIVER (9 h): 7.9 g
- A/G (9 h): 2.2
- ALP (9 h): 605 IU/L
- ALT (9 h): 29.6 IU/L
- AST (9 h): 66.4 IU/L
- BUN (9 h): 11.8 mg/dL
- CRE (9 h): 0.5 mg/dL
- Ca (9 h): 10.6 mg/dL
- Cl (9 h): 106.8 meq/L
- DBIL (9 h): 0.036 mg/dL
- GLC (9 h): 191.8 mg/dL
- IP (9 h): 10.3 mg/dL
- K (9 h): 5 meq/L
- LDH (9 h): 59 IU/L
- Na (9 h): 138 meq/L
- PL (9 h): 133.2 mg/dL
- RALB (9 h): 3.6 g/dL
- TBIL (9 h): 0.4 mg/dL
- TC (9 h): 76.8 mg/dL
- TG (9 h): 40.4 mg/dL
- TP (9 h): 5.3 g/dL
- gamma-GTP (9 h): 2.4 IU/L
- TERMINAL_BW (24 h): 212.9 g
- APTT (24 h): 16 s
- Bas (24 h): 0%
- Eos (24 h): 0.4%
- Fbg (24 h): 226.8 mg/dL
- Hb (24 h): 12.9 g/dL
- Ht (24 h): 38.4%
- Lym (24 h): 79.8%
- MCH (24 h): 21.8 pg
- MCHC (24 h): 33.7%
- MCV (24 h): 65 fL
- Mono (24 h): 4.6%
- Neu (24 h): 15%
- PT (24 h): 11.7 s
- Plat (24 h): 121.2 x10_4/uL
- RBC (24 h): 590.8 x10_4/ul
- Ret (24 h): 9.5%
- WBC (24 h): 106.7 x10_2/uL
- KIDNEY_L (24 h): 0.9 g
- KIDNEY_R (24 h): 0.9 g
- KIDNEY_TOTAL (24 h): 1.8 g
- LIVER (24 h): 10.1 g
- A/G (24 h): 2.2
- ALP (24 h): 864.6 IU/L
- ALT (24 h): 34.8 IU/L
- AST (24 h): 66.8 IU/L
- BUN (24 h): 20.4 mg/dL
- CRE (24 h): 0.5 mg/dL
- Ca (24 h): 10.8 mg/dL
- Cl (24 h): 106 meq/L
- DBIL (24 h): 0.018 mg/dL
- GLC (24 h): 202.2 mg/dL
- IP (24 h): 8.6 mg/dL
- K (24 h): 4.9 meq/L
- LDH (24 h): 93.4 IU/L
- Na (24 h): 140 meq/L
- PL (24 h): 143.2 mg/dL
- RALB (24 h): 3.8 g/dL
- TBIL (24 h): 0.3 mg/dL
- TC (24 h): 77.2 mg/dL
- TG (24 h): 93.6 mg/dL
- TP (24 h): 5.5 g/dL
- gamma-GTP (24 h): 2.2 IU/L

Reference: ChEMBL document CHEMBL3885861, “Open TG-GATES”
